Experiment: Ex vivo energy facilitated drug delivery from coated balloon to arteries in closed flow loop, HPLC quantification
Format: in vitro ADME, swine
Conditions: ex vivo porcine arteries, Trireme Chocolate balloon 6.0×40 coated with paclitaxel:PEG-8000 5:1 at 3.0 ug/mm2, GenePulser II 0.5 kV/1 μF, 3 pulses during about 1 minute expansion, vs same device without voltage
Source text: The energy source to power the device is a pulse generator capable of producing square waves. One commercial example of such a device is the BioRad Gene Pulser II (FIG. 7). The square wave generator produces suitable voltages between the range of 0.001 kV and 5 kV across the membrane. For all prototyping, this device was used to power all of coated catheters by connecting to the wire connection at the proximal catheter end. […] The tissue is then stored in isotonic saline and placed on ice (or 4° C.) for immediate use in an ex-vivo circulatory system.
Ex Vivo Testing Protocol • Fresh PBS is made with pre-measured pellets (1 pellet/100 ml H2O). • Porcine arterial tissue was acquired and cut to length • Arteries are placed in fresh PBS while cleaning of adventitia is performed. • Arteries are attached to the circulation apparatus with cannulas to allow flow through the vessel. […]

enhancement of the transfer of paclitaxel to arteries by application of voltage (factor): 10 ×
Structure (SMILES): CC(=O)O[C@H]1C(=O)[C@@]2(C)[C@H]([C@H](OC(=O)c3ccccc3)[C@]3(O)C[C@H](OC(=O)[C@H](O)[C@@H](NC(=O)c4ccccc4)c4ccccc4)C(C)=C1C3(C)C)[C@]1(OC(C)=O)CO[C@@H]1C[C@@H]2O [paclitaxel]

— patent US20230381473A1, “Drug Device Electroporation Angioplasty System” (Hydra Vascular LLC, priority 2014, published 2023)
